# Data as given in patent publication US10781224B2, “Bis(oxymethyl)phosphinic acid and biogenic metal salts thereof as regulators of plant growth and development” (priority 2016, dated 2020).
# How the values were obtained:
# rice (Diamant variety) = test: Rice seed treatment with BHMPA salts: germinating power; format: in vivo
# How it was run: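 Seeds (50 per Petri dish on two layers of filter paper) soaked 1 h in BHMPA or its Ca, Mg, Na, Co, Mn, Cu or Zn salts at 1·10^−6-1·10^−12%, with water controls. Germination energy read on day 4, germination on day 8 (wheat) or day 7 (rice, corn), as % means of four replicates. Germinating power taken as root and sprout length plus wet and dry mass per 100 seedlings.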
# [1] = test system: corn (Krasnodar 385 MV variety); test: Corn seed treatment with BHMPA salts: germination energy and germination rate; format: in vivo
# How it was run: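 Corn, winter wheat and rice seeds (50 per dish, on filter paper) were soaked for 1 h in BHMPA or its metal salts at 1·10^−6-1·10^−12%, with water as control. Germination energy was read on day 4 and germination rate on day 8 for wheat and day 7 for rice and corn, following GOST 12038-84, as the mean of four replicates.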
# [2] = rice seed treatment, comparison with Melaphen (Table XXXIII), solution 1 · 10^−10%
# [3] = rice seeds, solution concentration 1 · 10^−6%
# [4] = rice seeds, solution concentration 1 · 10^−7%
# [5] = rice seeds, solution concentration 1 · 10^−8%
# [6] = rice seeds, solution concentration 1 · 10^−9%
# [7] = rice seeds, solution concentration 1 · 10^−10%
# [8] = rice seeds, solution concentration 1 · 10^−11%
# [9] = rice seeds, solution concentration 1 · 10^−12%
# [10] = rice, vs control, 1·10^−10% solution
# [11] = comparative study vs Melaphen, 1·10^−9% solution
smiles,measurement,setting,value
"O=P([O-])(CO)CO.O=P([O-])(CO)CO.[Mg+2] [Mg-salt, Magnesium BHMPA Salt]",optimum concentration for treating rice seeds before sowing,rice (Diamant variety); rice,1·10^−10%
same,"Length, root",rice (Diamant variety); [2],7.2 cm
same,"Length, root, + % to control",rice (Diamant variety); [2],50%
same,"Length, sprout",rice (Diamant variety); [2],4.6 cm
same,"Length, sprout, + % to control",rice (Diamant variety); [2],77%
same,"Mass, dry, root",rice (Diamant variety); [2],0.26 g/100 plantlings
same,"Mass, dry, root, + % to control",rice (Diamant variety); [2],24%
same,"Mass, dry, sprout",rice (Diamant variety); [2],0.30 g/100 plantlings
same,"Mass, dry, sprout, + % to control",rice (Diamant variety); [2],20%
same,"Mass, wet, root",rice (Diamant variety); [2],1.39 g/100 plantlings
same,"Mass, wet, root, + % to control",rice (Diamant variety); [2],42%
same,"Mass, wet, sprout",rice (Diamant variety); [2],2.39 g/100 plantlings
same,"Mass, wet, sprout, + % to control",rice (Diamant variety); [2],58%
same,"Length, root",rice (Diamant variety); [3],6.0 cm
same,"Length, root, + % to control",rice (Diamant variety); [3],13%
same,"Length, sprout",rice (Diamant variety); [3],2.8 cm
same,"Length, sprout, + % to control",rice (Diamant variety); [3],4%
same,"Mass, dry, root",rice (Diamant variety); [3],0.23 g/100 plantlings
same,"Mass, dry, root, + % to control",rice (Diamant variety); [3],4.5%
same,"Mass, dry, sprout",rice (Diamant variety); [3],0.35 g/100 plantlings
same,"Mass, dry, sprout, + % to control",rice (Diamant variety); [3],21%
same,"Mass, wet, root",rice (Diamant variety); [3],1.17 g/100 plantlings
same,"Mass, wet, root, + % to control",rice (Diamant variety); [3],18%
same,"Mass, wet, sprout",rice (Diamant variety); [3],1.96 g/100 plantlings
same,"Mass, wet, sprout, + % to control",rice (Diamant variety); [3],10%
same,"Length, root",rice (Diamant variety); [4],6.4 cm
same,"Length, root, + % to control",rice (Diamant variety); [4],21%
same,"Length, sprout",rice (Diamant variety); [4],2.9 cm
same,"Length, sprout, + % to control",rice (Diamant variety); [4],7%
same,"Mass, dry, root",rice (Diamant variety); [4],0.25 g/100 plantlings
same,"Mass, dry, root, + % to control",rice (Diamant variety); [4],14%
same,"Mass, dry, sprout",rice (Diamant variety); [4],0.40 g/100 plantlings
same,"Mass, dry, sprout, + % to control",rice (Diamant variety); [4],40%
same,"Mass, wet, root",rice (Diamant variety); [4],1.26 g/100 plantlings
same,"Mass, wet, root, + % to control",rice (Diamant variety); [4],27%
same,"Mass, wet, sprout",rice (Diamant variety); [4],2.21 g/100 plantlings
same,"Mass, wet, sprout, + % to control",rice (Diamant variety); [4],24%
same,"Length, root",rice (Diamant variety); [5],6.6 cm
same,"Length, root, + % to control",rice (Diamant variety); [5],24.5%
same,"Length, sprout",rice (Diamant variety); [5],3.0 cm
same,"Length, sprout, + % to control",rice (Diamant variety); [5],11%
same,"Mass, dry, root",rice (Diamant variety); [5],0.26 g/100 plantlings
same,"Mass, dry, root, + % to control",rice (Diamant variety); [5],18%
same,"Mass, dry, sprout",rice (Diamant variety); [5],0.43 g/100 plantlings
same,"Mass, dry, sprout, + % to control",rice (Diamant variety); [5],48%
same,"Mass, wet, root",rice (Diamant variety); [5],1.35 g/100 plantlings
same,"Mass, wet, root, + % to control",rice (Diamant variety); [5],36%
same,"Mass, wet, sprout",rice (Diamant variety); [5],2.31 g/100 plantlings
same,"Mass, wet, sprout, + % to control",rice (Diamant variety); [5],30%
same,"Length, root",rice (Diamant variety); [6],7.0 cm
same,"Length, root, + % to control",rice (Diamant variety); [6],32%
same,"Length, sprout",rice (Diamant variety); [6],3.2 cm
same,"Length, sprout, + % to control",rice (Diamant variety); [6],18.5%
same,"Mass, dry, root",rice (Diamant variety); [6],0.29 g/100 plantlings
same,"Mass, dry, root, + % to control",rice (Diamant variety); [6],32%
same,"Mass, dry, sprout",rice (Diamant variety); [6],0.47 g/100 plantlings
same,"Mass, dry, sprout, + % to control",rice (Diamant variety); [6],62%
same,"Mass, wet, root",rice (Diamant variety); [6],1.46 g/100 plantlings
same,"Mass, wet, root, + % to control",rice (Diamant variety); [6],46%
same,"Mass, wet, sprout",rice (Diamant variety); [6],2.37 g/100 plantlings
same,"Mass, wet, sprout, + % to control",rice (Diamant variety); [6],33%
same,"Length, root",rice (Diamant variety); [7],7.2 cm
same,"Length, root, + % to control",rice (Diamant variety); [7],36%
same,"Length, sprout",rice (Diamant variety); [7],3.8 cm
same,"Length, sprout, + % to control",rice (Diamant variety); [7],41%
same,"Mass, dry, root",rice (Diamant variety); [7],0.35 g/100 plantlings
same,"Mass, dry, root, + % to control",rice (Diamant variety); [7],59%
same,"Mass, dry, sprout",rice (Diamant variety); [7],0.49 g/100 plantlings
same,"Mass, dry, sprout, + % to control",rice (Diamant variety); [7],69%
same,"Mass, wet, root",rice (Diamant variety); [7],1.62 g/100 plantlings
same,"Mass, wet, root, + % to control",rice (Diamant variety); [7],63%
same,"Mass, wet, sprout",rice (Diamant variety); [7],2.52 g/100 plantlings
same,"Mass, wet, sprout, + % to control",rice (Diamant variety); [7],41.5%
same,"Length, root",rice (Diamant variety); [8],6.7 cm
same,"Length, root, + % to control",rice (Diamant variety); [8],26%
same,"Length, sprout",rice (Diamant variety); [8],3.1 cm
same,"Length, sprout, + % to control",rice (Diamant variety); [8],15%
same,"Mass, dry, root",rice (Diamant variety); [8],0.27 g/100 plantlings
same,"Mass, dry, root, + % to control",rice (Diamant variety); [8],23%
same,"Mass, dry, sprout",rice (Diamant variety); [8],0.44 g/100 plantlings
same,"Mass, dry, sprout, + % to control",rice (Diamant variety); [8],52%
same,"Mass, wet, root",rice (Diamant variety); [8],1.44 g/100 plantlings
same,"Mass, wet, root, + % to control",rice (Diamant variety); [8],45%
same,"Mass, wet, sprout",rice (Diamant variety); [8],2.34 g/100 plantlings
same,"Mass, wet, sprout, + % to control",rice (Diamant variety); [8],31%
same,"Length, root",rice (Diamant variety); [9],6.3 cm
same,"Length, root, + % to control",rice (Diamant variety); [9],19%
same,"Length, sprout",rice (Diamant variety); [9],2.9 cm
same,"Length, sprout, + % to control",rice (Diamant variety); [9],7%
same,"Mass, dry, root",rice (Diamant variety); [9],0.23 g/100 plantlings
same,"Mass, dry, root, + % to control",rice (Diamant variety); [9],4.5%
same,"Mass, dry, sprout",rice (Diamant variety); [9],0.39 g/100 plantlings
same,"Mass, dry, sprout, + % to control",rice (Diamant variety); [9],34%
same,"Mass, wet, root",rice (Diamant variety); [9],1.31 g/100 plantlings
same,"Mass, wet, root, + % to control",rice (Diamant variety); [9],32%
same,"Mass, wet, sprout",rice (Diamant variety); [9],2.18 g/100 plantlings
same,"Mass, wet, sprout, + % to control",rice (Diamant variety); [9],22%
same,dry mass of the roots increased by,rice (Diamant variety); [10],59%
same,dry mass of the sprouts increased by,rice (Diamant variety); [10],69%
same,length of the root increased by,rice (Diamant variety); [10],36%
same,length of the sprout increased by,rice (Diamant variety); [10],41%
same,wet mass of the roots increased by,rice (Diamant variety); [10],63%
same,wet mass of the sprouts increased by,rice (Diamant variety); [10],41.5%
same,Germination energy,[1]; 1·10^−6% solution,82.3%
same,Germination rate,[1]; 1·10^−6% solution,84.7%
same,Germination energy,[1]; 1·10^−7% solution,85.3%
same,Germination rate,[1]; 1·10^−7% solution,89.0%
same,Germination energy,[1]; 1·10^−8% solution,87.7%
same,Germination rate,[1]; 1·10^−8% solution,93.3%
same,Germination energy,[1]; 1·10^−9% solution,89.71%
same,Germination rate,[1]; 1·10^−9% solution,95.8%
same,Germination energy,"[1]; 1·10^−9% solution, listed as Mg",89.7%
same,Germination energy,[1]; 1·10^−10% solution,90.3%
same,Germination rate,[1]; 1·10^−10% solution,93.7%
same,Germination energy,[1]; 1·10^−11% solution,88.0%
same,Germination rate,[1]; 1·10^−11% solution,91.7%
same,Germination energy,[1]; 1·10^−12% solution,86.7%
same,Germination rate,[1]; 1·10^−12% solution,90.8%
same,Germination energy,[1]; [11],86.0%
same,Germination rate,[1]; [11],95.7%
